According to patent US20030087906A1, “NITROGEN SUBSTITUTED BIARYL PURINE DERIVATIVES AS POTENT ANTIPROLIFERATIVE AGENTS” (priority 2001, published 2003):
“And” between values parts separate entries of the source, which are not always exact repeats. Identical values can stand only once.

Assays:
CyclinA/cdk2 = CyclinA/cdk2 (Homo sapiens, UniProt P24941); assay: CyclinA/cdk2 protein kinase assay (histone H1 phosphorylation); details: IC50 CyclinA/cdk2, complex immunopurified from HeLa cells; 15 μM ATP; replicate experiments
HeLa S-3 cells = assay: Inhibition of cell growth of HeLa cells (SRB); format: cell-based, human; details: 2 days of treatment, replicate experiments
Method: Growth inhibition (GI50) values were measured with HeLa S-3 cells selected for growth on plastic. […] One day later, a control plate was fixed by addition of TCA to 5%. After five rinses with tap water the plate was air dried and stored at 4° C. Test compounds were added to the remaining plates at 10-fold dilutions between 0.01 and 100 μM. Two days later all plates were fixed as described above. Cells were then stained by the addition of 100 μl per well of 0.4% sulforhodamine B (SRB) in 1% acetic acid for 30 min at 4° C. Wells were then quickly rinsed 5×with acetic acid (1%) and allowed to air dry. The SRB was then solubilized by the addition of 100 μl per well of unbuffered 10 mM Tris base. Dye was quantified by measuring absorbance at 490 nm on a Molecular Devices kinetic microplate reader. Growth at each inhibitor concentration relative to the untreated control was calculated according to the following equation: percent growth=100×(T−To)/(C−To), where T was the average optical density (OD) of the test wells after 2 days of treatment, To was the average OD of the wells in the control plate on day 0 and C was the average OD of untreated wells. Plots of percent growth versus inhibitor concentration were used to determine the GI50.

CyclinE/cdk2 = CyclinE/cdk2 (Homo sapiens, UniProt P24941); assay: CyclinE/cdk2 protein kinase assay (histone H1 phosphorylation); details: IC50 CyclinE/cdk2, complex immunopurified from HeLa cells; 15 μM ATP; replicate experiments
CyclinB/cdk1 = molecular target: T1, CyclinB/cdk1 (Homo sapiens, UniProt P06493); assay: CyclinB/cdk1 protein kinase assay (histone H1 phosphorylation); format: biochemical; details: complex immunopurified from HeLa cells; 15 μM ATP; replicate experiments
T1 construct: Monoclonal antibody against cyclinB (GNS1) is added to the supernatant; endogenous in cells
Method: HeLa cells are blocked at the G1/S border by culturing in the presence of 2 mM thymidine for 20 h. The cells are then rinsed 3×in phosphate buffered saline and resuspended in regular medium. After 4 h of culture, the mitotic blocker, nocodazole is added to a final concentration of 75 ng/ml. […] The lysate is then clarified by centrifugation at 10,000×g for 10 min. The supernatant is collected and diluted 1:5 with Lysis Buffer. Monoclonal antibody against cyclinB (GNS1) is added to the supernatant to a final concentration of 5 μg/ml and shaken at 4° C. for 2 h. The immune complexes are then collected by the addition of 200 μl of protein agarose beads for 1 h. The beads are washed 4×in lysis buffer and 1×in kinase assay buffer.
Duplicate assays were performed at each concentration.

T1 sequence (P06493 whole entry): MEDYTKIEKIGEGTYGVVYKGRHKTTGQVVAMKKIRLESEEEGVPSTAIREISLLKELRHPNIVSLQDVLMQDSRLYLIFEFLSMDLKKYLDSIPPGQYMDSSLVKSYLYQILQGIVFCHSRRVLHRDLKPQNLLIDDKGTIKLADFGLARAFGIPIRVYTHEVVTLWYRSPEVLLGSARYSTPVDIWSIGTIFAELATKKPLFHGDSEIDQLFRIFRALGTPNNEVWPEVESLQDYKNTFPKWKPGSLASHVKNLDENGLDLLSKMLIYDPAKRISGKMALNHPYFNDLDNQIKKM
T1 sequence (P14635 whole entry partner): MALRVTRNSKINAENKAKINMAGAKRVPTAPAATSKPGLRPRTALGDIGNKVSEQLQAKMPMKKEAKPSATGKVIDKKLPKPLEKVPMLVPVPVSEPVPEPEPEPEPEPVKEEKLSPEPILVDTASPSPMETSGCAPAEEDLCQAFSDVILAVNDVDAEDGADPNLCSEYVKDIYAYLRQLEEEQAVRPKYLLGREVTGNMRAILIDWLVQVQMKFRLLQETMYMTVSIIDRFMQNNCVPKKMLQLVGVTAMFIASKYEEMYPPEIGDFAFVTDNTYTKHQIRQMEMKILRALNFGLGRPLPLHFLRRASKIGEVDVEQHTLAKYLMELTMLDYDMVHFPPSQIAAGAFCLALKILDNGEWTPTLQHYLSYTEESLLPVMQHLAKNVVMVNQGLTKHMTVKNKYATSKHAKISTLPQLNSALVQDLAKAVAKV

IC50 (CyclinA/cdk2) | melting point | GI50 (HeLa S-3 cells; Homo sapiens, HeLa S3, 48 h) [µM] | IC50 (CyclinE/cdk2) | IC50 (CyclinB/cdk1) [µM] | GI50 (HeLa S-3 cells) | Compound
3 µM | 246 to 249 °C (dec.) | > 10 | 0.7 µM | – | – | CC(C)n1cnc2c(NCc3ccc(-c4ccc(C(=O)O)cc4)cc3)nc(N[C@H]3CC[C@H](N)CC3)nc21 [Compound 114]
6 µM | 205 to 208 °C | – | 1 µM | – | – | CC(C)n1cnc2c(NCc3ccc(-c4cccc(C(=O)O)c4)cc3)nc(N[C@H]3CC[C@H](N)CC3)nc21 [Compound 118]
0.2 µM | 78 to 81 °C | – | 0.04 µM | – | < 0.001 µM and 0.0001 µM | CC(C)n1cnc2c(NCc3ccc(-c4ccsc4)nc3)nc(N[C@H]3CC[C@H](N)CC3)nc21 [Compound 123]

The next lines start with the molecule.

Compound | IC50 (CyclinA/cdk2) | melting point | GI50 (HeLa S-3 cells; Homo sapiens, HeLa S3, 48 h) [µM] | IC50 (CyclinE/cdk2) | IC50 (CyclinB/cdk1) [µM] | GI50 (HeLa S-3 cells)
COC(=O)c1ccc(-c2ccc(CNc3nc(N[C@H]4CC[C@H](NC(C)=O)CC4)nc4c3ncn4C(C)C)cc2)cc1 [Compound 117] | > 10 µM | 247 to 250 °C | – | 3 µM | – | –
COC(=O)c1ccc(-c2ccc(CNc3nc(N[C@H]4CC[C@H](N)CC4)nc4c3ncn4C(C)C)cc2)cc1 [Compound 115] | 3 µM | 194 to 197 °C | 3 | 0.4 µM | – | –
CC(C)n1cnc2c(NCc3ccc(-c4ccccc4)cc3)nc(N[C@H]3CC[C@H](O)CC3)nc21 [Compound 77] | > 10 µM | 196 to 200 °C | – | 4 µM and 14 µM | > 10 | –
CC(=O)N[C@H]1CC[C@H](Nc2nc(NCc3ccc(-c4ccc(C(=O)O)cc4)cc3)c3ncn(C(C)C)c3n2)CC1 [Compound 116] | > 10 µM | 344 to 347 °C | > 10 | > 10 µM | – | –
CC(=O)N[C@H]1CC[C@H](Nc2nc(NCc3ccc(-c4cc(C)cc(C)c4)cc3)c3ncn(C(C)C)c3n2)CC1 [Compound 150] | – | 207 to 210 °C | 0.3 | – | – | –
CC(=O)N[C@H]1CC[C@H](Nc2nc(NCc3ccc(-c4ccccc4)cc3)c3ncn(C(C)C)c3n2)CC1 [Compound 76] | 12 µM and 11 µM and 3 µM | 224 to 225 °C | – | 3 µM and 5 µM and 2 µM | 6 | –
